Test results as given in patent publication US11739101B2, “Bifunctional degraders of hematopoietic progenitor kinase and therapeutic uses thereof” (Nurix Therapeutics, Inc., priority 2020, dated 2023).

target: T1, HPK1 (Homo sapiens, UniProt Q92918); experiment: HPK1 Cellular HiBiT Degradation Assay; format: cell-based; settings: HiBiT-tagged HPK1 Jurkat cells, 24 hours, 10 uM to 0.1 nM; Dmax = 100 minus lowest % HPK1 remaining vs DMSO vehicle
T1 construct: A HiBiT tag was introduced by CRISPR on the N terminus of HPK1 in Jurkat cells; host or cells: Jurkat (ATCC TIB-152), monoclonal CRISPR HiBiT knock-in line
Method: HiBiT HPK1 Jurkat cell lines were used to evaluate the total protein levels of HPK1 in a robust human cellular high throughput format. The level of HPK1 remaining following treatment with HPK1 CTMs is reported as Dmax (maximum degradation) achieved at 24 hours when compared to vehicle treated controls. […] These decreases were not a result of cytotoxicity measured by a parallel viability assessment (CTG). See also Table 1.
A HiBiT tag was introduced by CRISPR on the N terminus of HPK1 in Jurkat cells (ATCC® TIB-152) to allow quantitation of HPK1 protein levels in a monoclonal human cell line. Cells were plated at 1×10^6 cells/mL, 30 uL/well (3×10^4 cells/well) in complete RPMI 1640 (10% heat inactivated FBS, 1% L-glutamine) in 384-well assay plates (Corning, cat. no. 3570). HPK1 chimeric targeting molecules (CTMs) were added in an 11-point dilution series (3.16-fold) with a final assay concentration range of 10 uM to 0.1 nM. The parental Jurkat cell line, with no HiBiT insertion, was included in the assay as a background control. Cells treated with a DMSO vehicle control were used to determine the maximum signal defining 100% HPK1 in the cell. Cells were incubated for 24 hours at 37° C./5% CO2. Following incubation, 30 uL of complete Nano-Glo HiBiT Lytic Detection Reagent (Promega cat. no. N3040) was added. Cells were incubated for 10 minutes at room temperature and luminescence was read on an EnVision plate reader (Perkin Elmer, 0.1 sec per well). Parallel plates were assessed for viability using Cell Titer Glo (Promega) and read on an EnVision plate reader to ensure results were not the effect of cytotoxicity. Percent HPK1 remaining per sample was calculated as follows: […]
% HPK1 remaining values were plotted as a function of compound concentration and curves were fit using the Prism (GraphPad) equation “log(inhibitor) vs response−Variable slope (four parameters)”. Dmax values were calculated by identifying the lowest % remaining and subtracting from 100. Dmax values are provided in Table 1, wherein A>65%, 45%≤B≤65% and C<45%.

T1 sequence (Q92918 whole entry): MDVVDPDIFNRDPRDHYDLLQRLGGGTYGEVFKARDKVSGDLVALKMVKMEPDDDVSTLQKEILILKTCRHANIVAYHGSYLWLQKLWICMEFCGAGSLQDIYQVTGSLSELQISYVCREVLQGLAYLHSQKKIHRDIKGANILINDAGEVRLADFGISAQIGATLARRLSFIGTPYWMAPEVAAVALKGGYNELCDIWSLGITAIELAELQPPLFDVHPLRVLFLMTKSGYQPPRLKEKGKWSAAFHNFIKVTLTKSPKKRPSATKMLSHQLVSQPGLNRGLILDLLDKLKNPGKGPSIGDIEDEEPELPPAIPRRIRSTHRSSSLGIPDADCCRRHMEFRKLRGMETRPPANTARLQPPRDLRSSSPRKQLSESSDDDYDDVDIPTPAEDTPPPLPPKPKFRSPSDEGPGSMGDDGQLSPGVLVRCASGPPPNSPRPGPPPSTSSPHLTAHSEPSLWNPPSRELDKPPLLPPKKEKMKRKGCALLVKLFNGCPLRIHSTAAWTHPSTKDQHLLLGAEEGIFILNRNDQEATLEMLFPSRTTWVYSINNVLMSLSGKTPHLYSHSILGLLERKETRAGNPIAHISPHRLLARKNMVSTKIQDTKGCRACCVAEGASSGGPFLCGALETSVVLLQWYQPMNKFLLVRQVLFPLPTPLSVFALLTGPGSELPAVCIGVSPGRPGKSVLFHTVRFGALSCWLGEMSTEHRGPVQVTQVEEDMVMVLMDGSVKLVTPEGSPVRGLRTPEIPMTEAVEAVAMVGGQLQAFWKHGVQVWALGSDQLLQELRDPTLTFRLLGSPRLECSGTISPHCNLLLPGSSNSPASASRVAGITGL

Dmax	Compound
> 65%	Cc1cc(F)c(Nc2nc(-c3ccc4c(c3)N([C@H]3C[C@@H](N5CCCCC5)C3)C(=O)C43CCN(C(=O)CCCCCCCC(=O)N[C@H](C(=O)N4C[C@H](O)C[C@H]4C(=O)N[C@@H](C)c4ccc(-c5scnc5C)cc4)C(C)(C)C)CC3)cc3ncn(C(C)C)c23)cc1C(=O)NC(C)C [Example 10, (2S,4R)-1-((S)-2-(9-(6-(4-((2-fluoro-5-(isopropylcarbamoyl)-4-methylphenyl)amino)-3-isopropyl-3H-imidazo[4,5-c]pyridin-6-yl)-2-oxo-1-((1s,3s)-3-(piperidin-1-yl)cyclobutyl)spiro[indoline-3,4′-piperidin]-1′-yl)-9-oxononanamido)-3,3-dimethylbutanoyl)-4-hydroxy-N—((S)-1-(4-(4-methylthiazol-5-yl)phenyl)ethyl)pyrrolidine-2-carboxamide]
< 45%	Cc1cc(F)c(Nc2nc(-c3ccc4c(c3)N([C@H]3C[C@@H](N5CCCCC5)C3)C(=O)C43CCN(C(=O)CCOCCNc4cccc5c4C(=O)N(C4CCC(=O)NC4=O)C5=O)CC3)cc3ncn(C(C)C)c23)cc1C(=O)NC(C)C (some centres unmarked) [Example 11, 5-((6-(1′-(3-(2-((2-(2,6-dioxopiperidin-3-yl)-1,3-dioxoisoindolin-4-yl)amino)ethoxy)propanoyl)-2-oxo-1-((1s,3s)-3-(piperidin-1-yl)cyclobutyl)spiro[indoline-3,4′-piperidin]-6-yl)-3-isopropyl-3H-imidazo[4,5-c]pyridin-4-yl)amino)-4-fluoro-N-isopropyl-2-methylbenzamide]
45 to 65%	Cc1cc(F)c(Nc2nc(-c3ccc4c(c3)N([C@H]3C[C@@H](N5CCCCC5)C3)C(=O)C43CCN(C(=O)CCOCCOCCOCCOCCOCCNc4cccc5c4C(=O)N(C4CCC(=O)NC4=O)C5=O)CC3)cc3ncn(C(C)C)c23)cc1C(=O)NC(C)C (some centres unmarked) [Example 12, 5-((6-(1′-(1-((2-(2,6-dioxopiperidin-3-yl)-1,3-dioxoisoindolin-4-yl)amino)-3,6,9,12,15-pentaoxaoctadecan-18-oyl)-2-oxo-1-((1s,3s)-3-(piperidin-1-yl)cyclobutyl)spiro[indoline-3,4′-piperidin]-6-yl)-3-isopropyl-3H-imidazo[4,5-c]pyridin-4-yl)amino)-4-fluoro-N-isopropyl-2-methylbenzamide]
< 45%	Cc1cc(F)c(Nc2nc(-c3ccc4c(c3)N([C@H]3C[C@@H](N5CCCCC5)C3)C(=O)C43CCN(C(=O)CCCCCCCOc4cc(-c5scnc5C)ccc4CNC(=O)[C@@H]4C[C@@H](O)CN4C(=O)[C@@H](NC(=O)C4(F)CC4)C(C)(C)C)CC3)cc3ncn(C(C)C)c23)cc1C(=O)NC(C)C [Example 13, (2S,4R)—N-(2-((8-(6-(4-((2-fluoro-5-(isopropylcarbamoyl)-4-methylphenyl)amino)-3-isopropyl-3H-imidazo[4,5-c]pyridin-6-yl)-2-oxo-1-((1s,3s)-3-(piperidin-1-yl)cyclobutyl)spiro[indoline-3,4′-piperidin]-1′-yl)-8-oxooctyl)oxy)-4-(4-methylthiazol-5-yl)benzyl)-1-((S)-2-(1-fluorocyclopropane-1-carboxamido)-3,3-dimethylbutanoyl)-4-hydroxypyrrolidine-2-carboxamide]
45 to 65%	Cc1cc(F)c(Nc2nc(-c3ccc4c(c3)N([C@H]3C[C@@H](N5CCCCC5)C3)C(=O)C43CCN(C(=O)CCC4CCN(CC(=O)N[C@H](C(=O)N5C[C@H](O)C[C@H]5C(=O)N[C@@H](C)c5ccc(-c6scnc6C)cc5)C(C)(C)C)CC4)CC3)cc3ncn(C(C)C)c23)cc1C(=O)NC(C)C [Example 14, (2S,4R)-1-((S)-2-(2-(4-(3-(6-(4-((2-fluoro-5-(isopropylcarbamoyl)-4-methylphenyl)amino)-3-isopropyl-3H-imidazo[4,5-c]pyridin-6-yl)-2-oxo-1-((1s,3s)-3-(piperidin-1-yl)cyclobutyl)spiro[indoline-3,4′-piperidin]-1′-yl)-3-oxopropyl)piperidin-1-yl)acetamido)-3,3-dimethylbutanoyl)-4-hydroxy-N—((S)-1-(4-(4-methylthiazol-5-yl)phenyl)ethyl)pyrrolidine-2-carboxamide]
